Experimental data taken from PubChem BioAssay AID256 (DTP/NCI, 2004).
Values joined by “and” are separate entries in the source; they are usually repeats but may differ in a detail not shown here. Equal entries are not always repeated. Inconclusive results and toxic doses are left out. How the source made its calls: active means survival T/C of 150% or more; inactive means T/C below 125% in these data.

Test system: CD2F1 mice, L1210 leukemia ip, survival T/C
Test: NCI In Vivo Anticancer Drug Screen. Data for tumor model L1210 Leukemia (intraperitoneal) in CD2F1 (CDF1) mice
Settings: endpoint: mean survival time, higher = longer survival
In short: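 Compound-dosed mice with transplantable tumor versus matched vehicle controls; endpoint ratio T/C reported.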

Measured: T/C

CNC1=C(C)C(=O)C2=C(C1=O)C(COC(N)=O)C1(O)C3C(CN21)N3C (stereo not drawn)
inactive: dose: 1.5 mg/kg/injection, schedule: Q01DX001 (ip), vehicle: water 98 % of control | dose: 3.0 mg/kg/injection, schedule: Q01DX001 (ip), vehicle: water 100 % of control | dose: 6.0 mg/kg/injection, schedule: Q01DX001 (ip), vehicle: water 100 % of control | dose: 12.0 mg/kg/injection, schedule: Q01DX001 (ip), vehicle: water 100 % of control | dose: 24.0 mg/kg/injection, schedule: Q01DX001 (ip), vehicle: water 98 % of control | dose: 48.0 mg/kg/injection, schedule: Q01DX001 (ip), vehicle: water 115 % of control | dose: 96.0 mg/kg/injection, schedule: Q01DX001 (ip), vehicle: water 108 % of control

COc1cc(OC)c(OC)cc1/C=C/c1ccc2ccccc2n1
inactive: dose: 100.0 mg/kg/injection, schedule: Q04DX003 (ip), vehicle: saline with Tween-80 92 % of control | dose: 200.0 mg/kg/injection, schedule: Q04DX003 (ip), vehicle: saline with Tween-80 96 % of control | dose: 400.0 mg/kg/injection, schedule: Q04DX003 (ip), vehicle: saline with Tween-80 96 % of control

CO[C@H](C(=O)[C@@H](O)[C@@H](C)O)[C@@H]1Cc2cc3cc(OC4CC(OC5CC(O)C(O)C(C)O5)C(O)C(C)O4)c(C)c(O)c3c(O)c2C(=O)[C@H]1OC1CC(OC2CC(OC3CC(C)(O)C(O)C(C)O3)C(O)C(C)O2)C(O)C(C)O1 (stereo partly drawn)
inactive: dose: 0.13 mg/kg/injection, schedule: Q01DX009 (ip), vehicle: saline 95 % of control and 97 % of control and 101 % of control | dose: 0.25 mg/kg/injection, schedule: Q01DX009 (ip), vehicle: saline 95 % of control and 97 % of control and 103 % of control | dose: 0.5 mg/kg/injection, schedule: Q01DX009 (ip), vehicle: saline 93 % of control and 100 % of control and 105 % of control | dose: 0.5 mg/kg/injection, schedule: Q01DX Z (ip), vehicle: saline 124 % of control | dose: 1.0 mg/kg/injection, schedule: Q01DX009 (ip), vehicle: saline 101 % of control and 104 % of control and 107 % of control

Cc1sc(C)c(CCl)c1CCl
inactive: dose: 12.5 mg/kg/injection, schedule: Q01DX009 (ip), vehicle: saline with Tween-80 104 % of control | dose: 25.0 mg/kg/injection, schedule: Q01DX009 (ip), vehicle: saline with Tween-80 108 % of control | dose: 50.0 mg/kg/injection, schedule: Q01DX009 (ip), vehicle: saline with Tween-80 98 % of control

Brc1ccccc1C=C1c2ccccc2-c2ccccc21
inactive: dose: 100.0 mg/kg/injection, schedule: Q01DX009 (ip), vehicle: saline with Tween-80 100 % of control | dose: 200.0 mg/kg/injection, schedule: Q01DX009 (ip), vehicle: saline with Tween-80 102 % of control | dose: 400.0 mg/kg/injection, schedule: Q01DX009 (ip), vehicle: saline with Tween-80 106 % of control

CC[Si](CC)(CC)c1ccc(CCNCCS)s1
inactive: dose: 37.5 mg/kg/injection, schedule: Q01DX009 (ip), vehicle: saline 107 % of control | dose: 75.0 mg/kg/injection, schedule: Q01DX009 (ip), vehicle: saline 101 % of control

Cc1ccc(S(=O)(=O)N/N=C/c2ccc(C(=O)O)cc2)cc1
inactive: dose: 12.5 mg/kg/injection, schedule: Q04DX003 (ip), vehicle: other 101 % of control | dose: 25.0 mg/kg/injection, schedule: Q04DX003 (ip), vehicle: other 97 % of control | dose: 50.0 mg/kg/injection, schedule: Q04DX003 (ip), vehicle: other 106 % of control | dose: 100.0 mg/kg/injection, schedule: Q04DX003 (ip), vehicle: other 95 % of control | dose: 200.0 mg/kg/injection, schedule: Q04DX003 (ip), vehicle: other 95 % of control | dose: 400.0 mg/kg/injection, schedule: Q04DX003 (ip), vehicle: other 106 % of control

CC(=Nc1ccccc1)C1=C(O)C(Cc2cccc(F)c2)NC1=O (stereo not drawn)
inactive: dose: 100.0 mg/kg/injection, schedule: Q04DX002 (ip), vehicle: saline with Tween-80 116 % of control | dose: 400.0 mg/kg/injection, schedule: Q04DX002 (ip), vehicle: saline with Tween-80 103 % of control

CC[C@H](C)c1occ2c(O)c(C(=O)O)c(=O)cc-2c1C
inactive: dose: 100.0 mg/kg/injection, schedule: Q01DX001 (ip), vehicle: saline 98 % of control | dose: 200.0 mg/kg/injection, schedule: Q01DX001 (ip), vehicle: saline 101 % of control

Nc1nc(-c2ccccc2)nc2c1=NC(c1ccccc1)N=2 (stereo not drawn)
inactive: dose: 12.5 mg/kg/injection, schedule: Q01DX005 (ip), vehicle: other 96 % of control | dose: 25.0 mg/kg/injection, schedule: Q01DX005 (ip), vehicle: other 98 % of control | dose: 50.0 mg/kg/injection, schedule: Q01DX005 (ip), vehicle: other 98 % of control | dose: 100.0 mg/kg/injection, schedule: Q01DX005 (ip), vehicle: other 93 % of control | dose: 200.0 mg/kg/injection, schedule: Q01DX005 (ip), vehicle: other 93 % of control
